Reference: ChEMBL document CHEMBL1201862, “PubChem BioAssay data set” (2004)
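Test compounds were applied to cells in 96-well plates for 48 hours at 5 doses. At the GI50, growth is halved.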 Calls of active or inactive are those of the source. Rule as the data show it: active = GI50 up to about 1.1 µM and inactive = higher.

Columns and labels:
Assay in all cases: DTP human tumour cell line panel, 48 h
[1] = tested on: SNB-19
[2] = tested on: U-251
[3] = tested on: OVCAR-8
[4] = tested on: TK-10
[5] = tested on: MDA-MB-231
[6] = tested on: T47D
[7] = tested on: PC-3
[8] = tested on: M14
[9] = tested on: SNB-75
[10] = tested on: MCF7
[11] = tested on: MOLT-4
[12] = tested on: HCT-15
[13] = tested on: SN12C
[14] = tested on: UACC-257
[15] = tested on: RXF 393
[16] = tested on: 786-0
[17] = tested on: COLO 205
[18] = tested on: SK-MEL-2
[19] = tested on: NCI-H226
[20] = tested on: HOP-92

## O=C1c2ccccc2-c2c1c1ccccc1c(=O)n2CCO
[1]
  GI50: 6.1 µM (inactive)
[2]
  GI50: 8.61 µM (inactive)
[3]
  GI50: 9.38 µM (inactive)
[4]
  GI50: > 50.5 µM (inactive)
[5]
  GI50: 46 µM (inactive)
[6]
  GI50: 23.6 µM (inactive)
[7]
  GI50: 21.5 µM (inactive)
[8]
  GI50: > 100 µM (inactive)
[9]
  GI50: 25.4 µM (inactive)
[10]
  GI50: 4.41 µM (inactive)
[11]
  GI50: 2.14 µM (inactive)
[12]
  GI50: 5.83 µM
[13]
  GI50: 10.8 µM (inactive)
[14]
  GI50: > 79.6 µM (inactive)
[15]
  GI50: 32.1 µM (inactive)
[16]
  GI50: 6.03 µM (inactive)
[17]
  GI50: 4.9 µM (inactive)
[18]
  GI50: 39.6 µM (inactive)
[19]
  GI50: 6.84 µM (inactive)
[20]
  GI50: 29.5 µM (inactive)

## COc1ccc2c(c1)CCc1c(-c3noc4c3CCc3cc(OC)ccc3-4)noc1-2
[1]
  GI50: > 100 µM (inactive)
[2]
  GI50: > 100 µM (inactive)
[3]
  GI50: > 100 µM (inactive)
[4]
  GI50: > 100 µM (inactive)
[5]
  GI50: > 100 µM (inactive)
[6]
  GI50: > 100 µM (inactive)
[7]
  GI50: > 100 µM (inactive)
[8]
  GI50: > 100 µM (inactive)
[9]
  GI50: > 100 µM (inactive)
[10]
  GI50: > 100 µM (inactive)
[11]
  GI50: > 100 µM (inactive)
[12]
  GI50: > 100 µM
[13]
  GI50: > 100 µM (inactive)
[14]
  GI50: > 100 µM (inactive)
[15]
  GI50: > 100 µM (inactive)
[16]
  GI50: > 100 µM (inactive)
[17]
  GI50: > 100 µM (inactive)
[18]
  GI50: > 100 µM (inactive)
[19]
  GI50: > 100 µM (inactive)
[20]
  GI50: > 100 µM (inactive)

## O=C(O)c1ccccc1/C=C1/Nc2ccccc2C1=O
[1]
  GI50: > 100 µM (inactive)
[2]
  GI50: > 100 µM (inactive)
[3]
  GI50: > 100 µM (inactive)
[4]
  GI50: > 100 µM (inactive)
[5]
  GI50: > 100 µM (inactive)
[6]
  GI50: 51.8 µM (inactive)
[7]
  GI50: > 100 µM (inactive)
[8]
  GI50: > 100 µM (inactive)
[9]
  GI50: > 100 µM (inactive)
[10]
  GI50: 48.8 µM (inactive)
[11]
  GI50: 91.4 µM (inactive)
[12]
  GI50: 41.5 µM
[13]
  GI50: > 100 µM (inactive)
[14]
  GI50: > 100 µM (inactive)
[15]
  GI50: > 100 µM (inactive)
[16]
  GI50: > 100 µM (inactive)
[17]
  GI50: > 100 µM (inactive)
[18]
  GI50: > 100 µM (inactive)
[19]
  GI50: > 100 µM (inactive)
[20]
  GI50: > 100 µM (inactive)

## Cc1ccc([N+](=O)[O-])cc1S(=O)(=O)Nc1ccc(C2=NN(C(=O)c3ccccc3)C(c3cccs3)C2)cc1 (stereo not given)
[1]
  GI50: 33 µM (inactive)
[2]
  GI50: 20.8 µM (inactive)
[3]
  GI50: 22.4 µM (inactive)
[4]
  GI50: 21.4 µM (inactive)
[5]
  GI50: 16.3 µM (inactive)
[6]
  GI50: 9.42 µM (inactive)
[7]
  GI50: 21.9 µM (inactive)
[8]
  GI50: 24.1 µM (inactive)
[9]
  GI50: 20.2 µM (inactive)
[10]
  GI50: 18.1 µM (inactive)
[11]
  GI50: 20.4 µM (inactive)
[12]
  GI50: 21 µM
[13]
  GI50: 22.4 µM (inactive)
[14]
  GI50: 21.5 µM (inactive)
[15]
  GI50: 15.2 µM (inactive)
[16]
  GI50: 17.9 µM (inactive)
[17]
  GI50: 16.9 µM (inactive)
[18]
  GI50: 14.9 µM (inactive)
[19]
  GI50: 21.5 µM (inactive)
[20]
  GI50: 12.6 µM (inactive)

## O=C(Nc1ccccc1)c1cc(S(=O)(=O)Nc2nc3cccnc3[nH]2)c(SSc2cc(Cl)c(C(=O)Nc3ccccc3)cc2S(=O)(=O)Nc2nc3cccnc3[nH]2)cc1Cl
[1]
  GI50: > 100 µM (inactive)
[2]
  GI50: > 100 µM (inactive)
[3]
  GI50: > 100 µM (inactive)
[4]
  GI50: > 100 µM (inactive)
[5]
  GI50: > 100 µM (inactive)
[6]
  GI50: > 100 µM (inactive)
[7]
  GI50: > 100 µM (inactive)
[8]
  GI50: > 100 µM (inactive)
[9]
  GI50: > 100 µM (inactive)
[10]
  GI50: > 100 µM (inactive)
[11]
  GI50: > 100 µM (inactive)
[12]
  GI50: > 100 µM
[13]
  GI50: > 100 µM (inactive)
[14]
  GI50: > 100 µM (inactive)
[15]
  GI50: > 100 µM (inactive)
[16]
  GI50: > 100 µM (inactive)
[17]
  GI50: > 100 µM (inactive)
[18]
  GI50: > 100 µM (inactive)
[19]
  GI50: > 100 µM (inactive)
[20]
  GI50: > 100 µM (inactive)

## NC1OC(COC(=O)c2ccccc2)C(O)C(OC(=O)c2ccccc2)C1OC(=O)c1ccccc1 (stereo not given)
[1]
  GI50: 33 µM (inactive)
[2]
  GI50: 17.7 µM (inactive)
[3]
  GI50: 17.9 µM (inactive)
[4]
  GI50: 61.9 µM (inactive)
[5]
  GI50: 18.7 µM (inactive)
[6]
  GI50: 35.5 µM (inactive)
[7]
  GI50: 19.7 µM (inactive)
[8]
  GI50: 24.3 µM (inactive)
[9]
  GI50: 18.6 µM (inactive)
[10]
  GI50: 23.9 µM (inactive)
[11]
  GI50: 14.7 µM (inactive)
[12]
  GI50: 32.7 µM
[13]
  GI50: 24.3 µM (inactive)
[14]
  GI50: 18.1 µM (inactive)
[15]
  GI50: 16.3 µM (inactive)
[16]
  GI50: 15.5 µM (inactive)
[17]
  GI50: 22.1 µM (inactive)
[18]
  GI50: 29.9 µM (inactive)
[19]
  GI50: 20.8 µM (inactive)
[20]
  GI50: 35.2 µM (inactive)

## c1ccc(CNCCCCNCCCNCc2ccccc2)cc1
[1]
  GI50: 16.4 µM (inactive)
[2]
  GI50: 17.8 µM (inactive)
[3]
  GI50: > 10 µM (inactive)
[4]
  GI50: 19.8 µM (inactive)
[5]
  GI50: 15.2 µM (inactive)
[6]
  GI50: > 100 µM (inactive)
[7]
  GI50: 13.6 µM (inactive)
[8]
  GI50: 29.1 µM (inactive)
[9]
  GI50: 19.4 µM (inactive)
[10]
  GI50: > 100 µM (inactive)
[11]
  GI50: 14.3 µM (inactive)
[12]
  GI50: 19 µM
[13]
  GI50: 19.8 µM (inactive)
[14]
  GI50: 17.3 µM (inactive)
[15]
  GI50: 16.4 µM (inactive)
[16]
  GI50: 17.2 µM (inactive)
[17]
  GI50: 13.6 µM (inactive)
[18]
  GI50: 31.6 µM (inactive)
[19]
  GI50: 20.2 µM (inactive)
[20]
  GI50: 11.8 µM (inactive)
